Key:
[1] = tested on: HDF; experiment: Highest non cytotoxic concentration on HDF; type: cell-based; conditions: mM
Excerpt: (§1) We have tested two chicory extracts MS-55 (concentré MS-55 LEROUX) and MS-70 (pâte MS-70 LEROUX) and Chicoric acid.

[2] = tested on: HPEK; experiment: Highest non cytotoxic concentration on HPEK; type: cell-based, human; conditions: mM
Method: as §1
The potential beneficial effect of the Extracts of Example 1 towards skin barrier function and skin hydration was evaluated by using 2D culture of human primary epidermal keratinocytes and we assessed the synthesis of filaggrin

[3] = tested on: B16 murine melanocytes; experiment: Production of melanin by B16 murine melanocyte cell line; type: cell-based; conditions: for melanin production (result in words): B16 melanocytes, 72 hours, Kojic acid at 400 μg/mL
Method: In order to evaluate the potential beneficial effect of ingredients towards skin de- or pro-pigmentation we used 2D culture of murine melanocytes (B16) and we performed 2 tests: 1-assessment of melanin production and 2-assessment of tyrosinase production. B16 cells were cultured in DMEM 1 g/L glucose without phenol red supplemented with 10% foetal calf serum, in a humidified chamber at 37° C. and containing 5% CO2. Cells were incubated with the selected ingredients or the test references (Kojic acid at 400 μg/mL) for 72 hours, in the presence or absence of NDP-MSH an analog of MSH. The total quantity of melanin (extracellular and intracellular) was evaluated by measurement of the optical density at 405 nm of each sample against melanin standards in presence or in absence of NDP-MSH.

[4] = tested on: filaggrin; experiment: Synthesis of filaggrin by human epidermal keratinocytes (immunolabeling); type: cell-based; conditions: human primary epidermal keratinocytes, 144 hours
Method: The potential beneficial effect of the Extracts of Example 1 towards skin barrier function and skin hydration was evaluated by using 2D culture of human primary epidermal keratinocytes and we assessed the synthesis of filaggrin Human epidermal keratinocytes were cultured in control keratinocytes-SFM medium, in a humidified chamber at 37° C. and containing 5% CO2. Cells were incubated with the selected ingredients or the test references (CaCl2 at 1.5 mM) for 144 hours. The production of filaggrin by was evaluated by immunolabeling.

Compound | Highest non cytotoxic conc. on HDF [1] [mM] | Highest non cytotoxic conc. on HPEK [2] [mM] | decrease of melanin production ([3]; B16 melanocytes treated for 72 hours, percentage relative to the control) [%] | melanin production (result in words) [3] | filaggrin synthesis (result in words) [4]
O=C(/C=C/c1ccc(O)c(O)c1)O[C@@H](C(=O)O)[C@@H](OC(=O)/C=C/c1ccc(O)c(O)c1)C(=O)O [Chicoric acid] | 0.2 | 0.2 | 90 | decrease in vitro the synthesis of melanin | increase of filaggrin
O=c1cc(CO)occ1O [Kojic acid, reference compound] |  |  |  | decrease in melanin production | 

From patent publication US9491962B2, “Use of chicoric acid and derivatives for regulating skin pigmentation” (Nestec S.A., priority 2010, dated 2016)
